Source: US20210009564A1, “CALPAIN MODULATORS AND THERAPEUTIC USES THEREOF” (BLADE THERAPERTICS, INC., priority 2018, published 2021)
Where a name gives a salt, the structure may show the parent alone.

Assays:
Human Calpain 1/NS1 = molecular target: T1, Human Calpain 1/NS1 (Homo sapiens, UniProt P07384); experiment: Calpain inhibition, continuous fluorescence (FRET substrate) assay, calpain 1; type: biochemical; details: SensoLyte 520 FRET substrate, 25C
T1 sequence (P07384 1-714): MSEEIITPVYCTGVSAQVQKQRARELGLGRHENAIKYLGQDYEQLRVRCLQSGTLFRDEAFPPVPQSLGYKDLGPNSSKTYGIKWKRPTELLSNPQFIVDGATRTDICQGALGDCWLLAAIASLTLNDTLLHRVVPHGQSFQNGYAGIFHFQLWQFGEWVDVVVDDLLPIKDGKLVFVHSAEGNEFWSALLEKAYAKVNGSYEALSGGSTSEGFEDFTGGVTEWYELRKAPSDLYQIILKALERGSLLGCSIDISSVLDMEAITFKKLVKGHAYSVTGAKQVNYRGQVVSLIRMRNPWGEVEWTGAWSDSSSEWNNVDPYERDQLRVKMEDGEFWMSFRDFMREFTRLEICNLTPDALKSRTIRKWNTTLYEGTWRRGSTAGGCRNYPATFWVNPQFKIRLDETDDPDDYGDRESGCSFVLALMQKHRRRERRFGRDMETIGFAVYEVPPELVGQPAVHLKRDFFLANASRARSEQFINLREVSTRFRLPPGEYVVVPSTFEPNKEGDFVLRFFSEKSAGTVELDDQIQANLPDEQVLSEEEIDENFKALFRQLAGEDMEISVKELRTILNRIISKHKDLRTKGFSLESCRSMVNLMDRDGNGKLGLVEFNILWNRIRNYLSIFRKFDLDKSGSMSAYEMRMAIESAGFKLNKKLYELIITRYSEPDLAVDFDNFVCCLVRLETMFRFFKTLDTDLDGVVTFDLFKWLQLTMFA
T1 sequence (P04632 1-268 partner): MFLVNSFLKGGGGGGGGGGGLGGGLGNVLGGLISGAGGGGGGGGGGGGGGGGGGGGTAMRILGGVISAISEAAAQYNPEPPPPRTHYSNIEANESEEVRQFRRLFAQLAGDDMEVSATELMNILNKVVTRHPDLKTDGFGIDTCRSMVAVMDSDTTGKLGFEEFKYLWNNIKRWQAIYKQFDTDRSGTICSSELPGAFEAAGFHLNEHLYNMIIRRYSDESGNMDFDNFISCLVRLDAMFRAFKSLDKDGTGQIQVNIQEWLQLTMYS
Procedure: (§1) Calpain 1, 2, and 9 activity and inhibition thereof was assessed by means of a continuous fluorescence assay. The SensoLyte 520 Calpain substrate (Anaspec Inc) was optimized for detecting calpain activity. This substrate contains an internally quenched 5-FAM/QXLTM 520 FRET pair. Calpains 1, 2, and 9 cleave the FRET substrate into two separate fragments resulting in an increase of 5-FAM fluorescence that is proportional to calpain activity Assays were typically setup in black 384-well plates using automated liquid handling as follows. Calpain assay base buffer typically contains 50 mM Tris, pH 7.5, 100 mM NaCl and 1 mM DTT. Inhibitors were serially diluted in DMSO and used to setup 2× mixtures with calpains in the aforementioned buffer. After incubation at ambient temperature (25C), the reaction was initiated by adding a 2× mix of the fluorescent peptide substrate and CaCl2) (required for in-situ calpain activation) in the same buffer. Reaction progress curve data were typically collected for 10 min using excitation/emission wavelengths of 490 nm/520 nm on SpectraMax i3× or the FLIPR-Tetra plate readers (Molecular Devices Inc). Reaction rates were calculated from progress curve slopes typically over 1-5 min. Dose response curves (rate vs. log inhibitor concentration) were typically fit to a 4-parameter logistic function to extract IC50 values.

Human Calpain 2/NS1 = molecular target: T2, Human Calpain 2/NS1 (Homo sapiens, UniProt P17655); experiment: Calpain inhibition, continuous fluorescence (FRET substrate) assay, calpain 2; type: biochemical; details: SensoLyte 520 FRET substrate, 25C
T2 sequence (P17655 1-700): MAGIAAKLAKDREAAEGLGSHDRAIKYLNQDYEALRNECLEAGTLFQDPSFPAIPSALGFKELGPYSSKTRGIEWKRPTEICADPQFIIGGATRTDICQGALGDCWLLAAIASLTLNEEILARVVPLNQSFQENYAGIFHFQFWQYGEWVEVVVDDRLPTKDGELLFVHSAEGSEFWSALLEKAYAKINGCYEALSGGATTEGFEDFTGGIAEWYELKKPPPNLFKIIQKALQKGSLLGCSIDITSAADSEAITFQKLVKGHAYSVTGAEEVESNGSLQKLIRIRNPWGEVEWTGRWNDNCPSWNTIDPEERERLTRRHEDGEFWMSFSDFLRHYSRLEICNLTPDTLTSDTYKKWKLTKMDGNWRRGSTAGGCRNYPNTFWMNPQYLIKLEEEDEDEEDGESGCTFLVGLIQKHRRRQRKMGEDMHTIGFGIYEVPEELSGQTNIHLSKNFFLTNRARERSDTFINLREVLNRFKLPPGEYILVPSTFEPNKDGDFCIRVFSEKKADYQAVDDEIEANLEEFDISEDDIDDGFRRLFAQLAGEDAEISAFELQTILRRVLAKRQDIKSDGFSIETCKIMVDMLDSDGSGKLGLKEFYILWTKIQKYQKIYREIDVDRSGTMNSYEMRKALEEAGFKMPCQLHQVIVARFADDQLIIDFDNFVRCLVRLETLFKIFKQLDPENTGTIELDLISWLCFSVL
T2 sequence (P04632 1-268 partner): T1 sequence (P04632 1-268 partner)
Procedure: as §1

Human Calpain 9/NS1 = molecular target: T3, Human Calpain 9/NS1 (Homo sapiens, UniProt O14815); experiment: Calpain inhibition, continuous fluorescence (FRET substrate) assay, calpain 9; type: biochemical; details: SensoLyte 520 FRET substrate, 25C
T3 sequence (O14815 1-690): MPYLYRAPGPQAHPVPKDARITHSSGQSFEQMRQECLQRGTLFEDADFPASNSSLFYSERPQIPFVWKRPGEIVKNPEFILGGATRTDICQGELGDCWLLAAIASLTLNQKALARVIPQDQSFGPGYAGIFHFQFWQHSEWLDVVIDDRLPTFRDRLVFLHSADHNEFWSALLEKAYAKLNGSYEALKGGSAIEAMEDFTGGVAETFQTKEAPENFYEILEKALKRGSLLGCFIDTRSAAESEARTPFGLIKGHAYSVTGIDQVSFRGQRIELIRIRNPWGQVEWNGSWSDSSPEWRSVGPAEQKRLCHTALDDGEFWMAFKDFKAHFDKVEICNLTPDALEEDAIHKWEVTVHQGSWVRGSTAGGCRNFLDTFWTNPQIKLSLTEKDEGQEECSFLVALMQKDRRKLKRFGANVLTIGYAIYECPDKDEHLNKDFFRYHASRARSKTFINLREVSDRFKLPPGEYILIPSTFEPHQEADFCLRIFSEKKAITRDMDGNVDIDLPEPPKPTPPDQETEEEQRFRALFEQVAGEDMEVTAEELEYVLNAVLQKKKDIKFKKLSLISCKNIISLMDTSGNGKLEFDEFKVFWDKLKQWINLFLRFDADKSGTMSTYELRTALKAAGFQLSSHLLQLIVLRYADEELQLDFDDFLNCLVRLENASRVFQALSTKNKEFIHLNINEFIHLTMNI
T3 sequence (P04632 1-268 partner): T1 sequence (P04632 1-268 partner)
Procedure: as §1

[1] = system: Calpain activity in SH-SY5Y cells; experiment: SH-SY5Y spectrin breakdown product (SBDP-150) western blot assay; type: cell-based; details: Homo sapiens; SH-SY5Y cells, 25 uM A23187, SBDP-150 western blot; read-out: SH-SY5Y Spectrin IC50
[2] = system: Calpain activity in SH-SY5Y cells; experiment: SH-SY5Y Suc-LLVY-AMC fluorescence assay; type: cell-based; details: Homo sapiens; SH-SY5Y cells, 100 uM Suc-LLVY-AMC; read-out: SH-SY5Y + AMC IC50

Compound: Cn1cc(C(=O)NC(Cc2ccccc2)C(=O)C(N)=O)c(-c2ccc3cccnc3c2)n1 (stereo not drawn) [Compound 1, N-(4-AMINO-3,4-DIOXO-1-PHENYLBUTAN-2-YL)-1-METHYL-3-(QUINOLIN-7-YL)-1H-PYRAZOLE-4-CARBOXAMIDE]
- IC50 (Human Calpain 1/NS1): < 3 µM
- IC50 (Human Calpain 2/NS1): < 3 µM
- IC50 (Human Calpain 9/NS1): < 3 µM
- IC50 [1]: > 25 µM
- IC50 [2]: > 25 µM

Compound: Cn1cc(C(=O)NC(Cc2ccccc2)C(=O)C(N)=O)c(N2CCNCC2)n1 (stereo not drawn) [Compound 2, N-(4-AMINO-3,4-DIOXO-1-PHENYLBUTAN-2-YL)-1-METHYL-3-(PIPERAZIN-1-YL)-1H-PYRAZOLE-4-CARBOXAMIDE HYDROCHLORIDE]
- IC50 (Human Calpain 1/NS1): > 10 µM
- IC50 (Human Calpain 2/NS1): 3 to 10 µM
- IC50 (Human Calpain 9/NS1): > 10 µM
- IC50 [1]: > 25 µM
- IC50 [2]: 10 to 25 µM

Compound: NC(=O)C(=O)C(Cc1ccccc1)NC(=O)c1nsnc1-c1ccc(F)cc1 (stereo not drawn) [Compound 3, N-(4-AMINO-3,4-DIOXO-1-PHENYLBUTAN-2-YL)-4-(4-FLUOROPHENYL)-1,2,5-THIADIAZOLE-3-CARBOXAMIDE]
- IC50 (Human Calpain 1/NS1): < 3 µM
- IC50 (Human Calpain 2/NS1): < 3 µM
- IC50 (Human Calpain 9/NS1): < 3 µM
- IC50 [1]: 10 to 25 µM
- IC50 [2]: < 10 µM

Compound: NC(=O)C(=O)C(Cc1ccccc1)NC(=O)c1cn(C(F)F)nc1-c1nccc2ccccc12 (stereo not drawn) [Compound 4, N-(4-AMINO-3,4-DIOXO-1-PHENYLBUTAN-2-YL)-1-(DIFLUOROMETHYL)-3-(ISOQUINOLIN-1-YL)-1H-PYRAZOLE-4-CARBOXAMIDE]
- IC50 (Human Calpain 1/NS1): < 3 µM
- IC50 (Human Calpain 2/NS1): < 3 µM
- IC50 (Human Calpain 9/NS1): < 3 µM
- IC50 [1]: > 25 µM
- IC50 [2]: < 10 µM

Compound: NC(=O)C(=O)C(Cc1ccccc1)NC(=O)c1cnoc1-c1cccc2c1OCO2 (stereo not drawn) [Compound 5, N-(4-AMINO-3,4-DIOXO-1-PHENYLBUTAN-2-YL)-5-(BENZO[d][1,3]DIOXOL-4-YL)ISOXAZOLE-4-CARBOXAMIDE]
- IC50 (Human Calpain 1/NS1): < 3 µM
- IC50 (Human Calpain 2/NS1): < 3 µM
- IC50 (Human Calpain 9/NS1): < 3 µM
- IC50 [1]: 10 to 25 µM
- IC50 [2]: < 10 µM

Compound: Cn1cc(C(=O)NC(Cc2ccccc2)C(=O)C(N)=O)c(-c2cccc3ncsc23)n1 (stereo not drawn) [Compound 6, N-(4-AMINO-3,4-DIOXO-1-PHENYLBUTAN-2-YL)-3-(BENZO[D]THIAZOL-7-YL)-1-METHYL-1H-PYRAZOLE-4-CARBOXAMIDE]
- IC50 (Human Calpain 1/NS1): < 3 µM
- IC50 (Human Calpain 2/NS1): < 3 µM
- IC50 (Human Calpain 9/NS1): < 3 µM
- IC50 [1]: < 10 µM
- IC50 [2]: < 10 µM

Compound: NC(=O)C(=O)C(Cc1ccccc1)NC(=O)c1cn(C(F)F)nc1-c1cccc2ncsc12 (stereo not drawn) [Compound 7, N-(4-AMINO-3,4-DIOXO-1-PHENYLBUTAN-2-YL)-3-(BENZO[D]THIAZOL-7-YL)-1-(DIFLUOROMETHYL)-1H-PYRAZOLE-4-CARBOXAMIDE]
- IC50 (Human Calpain 1/NS1): < 3 µM
- IC50 (Human Calpain 2/NS1): < 3 µM
- IC50 (Human Calpain 9/NS1): < 3 µM
- IC50 [1]: < 10 µM
- IC50 [2]: < 10 µM

Compound: NC(=O)C(=O)C(Cc1ccccc1)NC(=O)c1cnoc1-c1cccc2c1OC(F)(F)O2 (stereo not drawn) [Compound 8, N-(4-AMINO-3,4-DIOXO-1-PHENYLBUTAN-2-YL)-5-(2,2-DIFLUOROBENZO[d][1,3]DIOXOL-4-YL)ISOXAZOLE-4-CARBOXAMIDE]
- IC50 (Human Calpain 1/NS1): < 3 µM
- IC50 (Human Calpain 2/NS1): < 3 µM
- IC50 (Human Calpain 9/NS1): < 3 µM
- IC50 [1]: 10 to 25 µM
- IC50 [2]: > 25 µM

Compound: Cn1cc(C(=O)NC(Cc2ccccc2)C(=O)C(N)=O)c(-n2cnc3ccccc32)n1 (stereo not drawn) [Compound 9, N-(4-AMINO-3,4-DIOXO-1-PHENYLBUTAN-2-YL)-3-(1H-BENZO[D]IMIDAZOL-1-YL)-1-METHYL-1H-PYRAZOLE-4-CARBOXAMIDE]
- IC50 (Human Calpain 1/NS1): < 3 µM
- IC50 (Human Calpain 2/NS1): < 3 µM
- IC50 (Human Calpain 9/NS1): < 3 µM
- IC50 [1]: 10 to 25 µM
- IC50 [2]: > 25 µM

Compound: COc1cccc(-c2nc(C)oc2C(=O)NC(Cc2ccccc2)C(=O)C(N)=O)c1F (stereo not drawn) [Compound 75, N-(4-AMINO-3,4-DIOXO-1-PHENYLBUTAN-2-YL)-4-(2-FLUORO-3-METHOXYPHENYL)-2-METHYLOXAZOLE-5-CARBOXAMIDE]
- IC50 (Human Calpain 1/NS1): < 3 µM
- IC50 (Human Calpain 2/NS1): < 3 µM
- IC50 (Human Calpain 9/NS1): < 3 µM
- IC50 [1]: 10 to 25 µM

Compound: Cc1nc(-c2c(F)cccc2F)c(C(=O)NC(Cc2ccccc2)C(=O)C(N)=O)o1 (stereo not drawn) [Compound 76, N-(4-AMINO-3,4-DIOXO-1-PHENYLBUTAN-2-YL)-4-(2,6-DIFLUOROPHENYL)-2-METHYLOXAZOLE-5-CARBOXAMIDE]
- IC50 (Human Calpain 1/NS1): < 3 µM
- IC50 (Human Calpain 2/NS1): < 3 µM
- IC50 (Human Calpain 9/NS1): < 3 µM
- IC50 [1]: 10 to 25 µM

Compound: Cn1cc2cccc(-c3nn(C(F)F)cc3C(=O)NC(Cc3ccccc3)C(=O)C(N)=O)c2n1 (stereo not drawn) [Compound 77, N-(4-AMINO-3,4-DIOXO-1-PHENYLBUTAN-2-YL)-1-(DIFLUOROMETHYL)-3-(2-METHYL-2H-INDAZOL-7-YL)-1H-PYRAZOLE-4-CARBOXAMIDE]
- IC50 (Human Calpain 1/NS1): < 3 µM
- IC50 (Human Calpain 2/NS1): < 3 µM
- IC50 (Human Calpain 9/NS1): < 3 µM
- IC50 [1]: 10 to 25 µM
